Source: patent publication US20060252807A1, “Novel ortho-terphenyl inhibitors of p38 kinase and methods of treating inflammatory disorders” (Kalypsys, Inc., priority 2005, published 2006)

The compounds below were run against T1, active p38 alpha enzyme (Upstate Biotechnology) (Homo sapiens, UniProt Q16539) (assay: p38α biochemical assay (ATP turnover, luminescent detection, Cambrex PKlight)). Conditions: p38α biochemical assay, Table 1 Biological Activity.
T1 construct: purchased Upstate Biotechnology
T1 sequence (Q16539 whole entry): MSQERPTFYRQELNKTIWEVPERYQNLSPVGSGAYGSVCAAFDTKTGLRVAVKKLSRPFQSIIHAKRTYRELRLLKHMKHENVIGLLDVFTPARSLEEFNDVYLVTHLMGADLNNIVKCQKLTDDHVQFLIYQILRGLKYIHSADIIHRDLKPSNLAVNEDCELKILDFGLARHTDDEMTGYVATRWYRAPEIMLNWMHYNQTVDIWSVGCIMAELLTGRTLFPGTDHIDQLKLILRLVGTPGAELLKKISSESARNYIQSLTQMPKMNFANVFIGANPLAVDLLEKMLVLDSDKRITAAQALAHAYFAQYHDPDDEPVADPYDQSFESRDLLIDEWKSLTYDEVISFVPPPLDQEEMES
Outline: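 Luminescent PKlight readout of total ATP consumption follows a 2 h, 30C kinase reaction. Enzyme and MapkapK2 substrate run with 1.4 uM ATP (final) in buffer containing Mg2+, Ca2+, chelators, glycerol, reducing agent and BSA; test compounds added by pintool from DMSO.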

SMILES	IC50
Cc1ccc(C(=O)NCc2onc(-c3ccc(F)cc3)c2-c2nc(C(=O)NC(C)C)cs2)c(C)c1 [Example 609]	> 1000 nM
CC(CC(=O)NCc1nc(-c2ccc(F)cc2)c(-c2nc(C(=O)NC(C)C)cs2)o1)CC(C)(C)C (stereo not drawn) [Example 162]	> 1000 nM
COc1cc(C(=O)NCc2onc(-c3ccc(F)cc3)c2-c2nc(C(=O)NC(C)C)cs2)cc(Cl)n1 [Example 716]	> 1000 nM
CC(C)NC(=O)c1csc(-c2oc(CN3CCN(C(=O)C4=CCCC4)CC3)nc2-c2ccc(F)cc2)n1 [Example 344]	> 1000 nM
CC(C)NC(=O)c1csc(-c2c(-c3ccc(F)cc3)noc2CNC(=O)c2cc(F)c(F)c(O)c2F)n1 [Example 729]	> 1000 nM
CC(C)NC(=O)c1csc(-c2oc(CNC(=O)c3ccc(OCc4ccccc4)cc3)nc2-c2ccc(F)cc2)n1 [Example 308]	≤ 1000 nM
CC(C)NC(=O)c1csc(-c2oc(CN3CCN(C(=O)c4cccc(O)c4)CC3)nc2-c2ccc(F)cc2)n1 [Example 361]	> 1000 nM
CC(C)NC(=O)c1csc(-c2oc(CN3CCN(C(=O)C4CCCN4C(=O)OC(C)(C)C)CC3)nc2-c2ccc(F)cc2)n1 (stereo not drawn) [Example 532]	≤ 1000 nM
CC(C)NC(=O)c1csc(-c2c(-c3ccc(F)cc3)noc2CNC(=O)c2cccc(F)c2)n1 [Example 602]	> 1000 nM
Cc1ccc(C(=O)NCc2nc(-c3ccc(F)cc3)c(-c3nc(C(=O)NC(C)C)cs3)o2)cc1 [Example 123]	> 1000 nM
COc1ccc(C(=O)N2CCN(Cc3nc(-c4ccc(F)cc4)c(-c4nc(C(=O)NC(C)C)cs4)o3)CC2)cc1 [Example 378]	> 1000 nM
COc1ccccc1CC(=O)NCc1nc(-c2ccc(F)cc2)c(-c2nc(C(=O)NC(C)C)cs2)o1 [Example 182]	≤ 1000 nM
CC(C)NC(=O)c1csc(-c2c(-c3ccc(F)cc3)noc2CNC(=O)C2=CCCC2)n1 [Example 582]	> 1000 nM
CC(C)NC(=O)c1csc(-c2c(-c3ccc(F)cc3)noc2CNC(=O)Cc2ccc(C(F)(F)F)cc2)n1 [Example 754]	> 1000 nM
CC(C)NC(=O)c1csc(-c2c(-c3ccc(F)cc3)noc2CNC(C=O)c2ccc3cc(O)ccc3c2)n1 (stereo not drawn) [Example 717]	> 1000 nM
CC(C)NC(=O)c1csc(-c2c(-c3ccc(F)cc3)ncn2C2CCN(C(=O)OC(C)(C)C)CC2)n1 [Example 90, 4-|4-(4-Fluoro-phenyl)-5-(4-isopropylcarbamoyl-thiazol-2-yl)-imidazol-1-yl|-piperidine-1-carboxylic acid tert-butyl ester]	> 1000 nM
CC(C)NC(=O)c1csc(-c2oc(CN3CCN(C(=O)c4ccc(Oc5cccc(O)c5)cc4)CC3)nc2-c2ccc(F)cc2)n1 [Example 549]	> 1000 nM
CC(C)NC(=O)c1csc(-c2c(-c3ccc(F)cc3)noc2CNC(=O)c2cccc(Oc3ccccc3)c2)n1 [Example 763]	> 1000 nM
CCC(CO)NC(=O)c1csc(-c2sc(C)nc2-c2ccc(F)cc2)n1 (stereo not drawn) [Example 54, 4′-(4-Fluoro-phenyl)-2′-methyl-|2,5′|bithiazolyl-4-carboxylic acid (1-hydroxymethyl-propyl)-amide]	≤ 1000 nM
CCc1ccc(C(=O)NCc2nc(-c3ccc(F)cc3)c(-c3nc(C(=O)NC(C)C)cs3)o2)cc1 [Example 140]	> 1000 nM
CC(C)NC(=O)c1csc(-c2c(-c3ccc(F)cc3)noc2CNC(=O)CCc2cccc(C(F)(F)F)c2)n1 [Example 775]	> 1000 nM
CC(C)NC(=O)c1csc(-c2oc(CNC(=O)c3ccccc3C=O)nc2-c2ccc(F)cc2)n1 [Example 132]	> 1000 nM
CC(C)NC(=O)c1csc(-c2c(-c3ccc(F)cc3)noc2CNC(=O)C2CCCCN2C(=O)OC(C)(C)C)n1 (stereo not drawn) [Example 786]	> 1000 nM
CC(C)NC(=O)c1csc(-c2oc(CNC(=O)c3ccncc3)nc2-c2ccc(F)cc2)n1 [Example 113]	≤ 1000 nM

Same assay, conditions: p38α kinase; Table 1 Biological Activity

SMILES	IC50
CC(C)NC(=O)c1csc(-c2oc(CNC(C)CCc3ccccc3)nc2-c2ccc(F)cc2)n1 (stereo not drawn) [Example 1140]	> 1000 nM
CC(C)NC(=O)c1csc(-c2c(-c3ccc(F)cc3)n[nH]c2C2CCN(C(=O)/C=C/c3ccccc3C(F)(F)F)CC2)n1 [Example 1010]	> 1000 nM
CCOC(=O)C1CCN(Cc2nc(-c3ccc(F)cc3)c(-c3nc(C(=O)NC(C)C)cs3)o2)CC1 [Example 1237]	> 1000 nM
Cc1nc(-c2ccc(F)cc2)c(-c2nc(C(=O)NCc3ccccc3OC(F)(F)F)cs2)s1 [Example 1827]	≤ 1000 nM
CC(C)NC(=O)c1csc(-c2oc(CNCCc3cccc(Cl)c3)nc2-c2ccc(F)cc2)n1 [Example 1151]	> 1000 nM
CC(C)NC(=O)c1csc(-c2c(-c3ccc(F)cc3)noc2CN(C)Cc2cccc3ccccc23)n1 [Example 1609]	> 1000 nM
CC(C)NC(=O)c1csc(-c2c(-c3ccc(F)cc3)noc2CNC(C)C(C)C)n1 (stereo not drawn) [Example 1400]	> 1000 nM
CC(C)NC(=O)c1csc(-c2c(-c3ccc(F)cc3)noc2CNCc2cc(F)cc(F)c2)n1 [Example 1467]	> 1000 nM
Cc1ccc([C@H](C)NC(=O)c2csc(-c3c(-c4ccc(F)cc4)n[nH]c3C3CCNCC3)n2)cc1 [Example 2092]	> 1000 nM
COc1cccc(N2CCN(Cc3nc(-c4ccc(F)cc4)c(-c4nc(C(=O)NC(C)C)cs4)o3)CC2)c1 [Example 1271]	> 1000 nM
Cc1nc(-c2ccc(F)cc2)c(-c2nc(C(=O)N3CCN(c4ccc(C)c(C)c4)CC3)cs2)s1 [Example 1917]	> 1000 nM
COc1ccc(CCNCc2onc(-c3ccc(F)cc3)c2-c2nc(C(=O)NC(C)C)cs2)cc1 [Example 1475]	> 1000 nM
Cc1cccc(NC(=O)c2csc(-c3sc(C)nc3-c3ccc(F)cc3)n2)c1 [Example 1956]	> 1000 nM
CC(C)NC(=O)c1csc(-c2oc(CNc3ccccc3)nc2-c2ccc(F)cc2)n1 [Example 1307]	> 1000 nM
COC(=O)C1CCN(Cc2nc(-c3ccc(F)cc3)c(-c3nc(C(=O)NC(C)C)cs3)o2)CC1 [Example 1232]	> 1000 nM
CCN(CCO)Cc1onc(-c2ccc(F)cc2)c1-c1nc(C(=O)NC(C)C)cs1 [Example 1520]	> 1000 nM
CCC(C)NC(=O)c1csc(-c2sc(C)nc2-c2ccc(F)cc2)n1 (stereo not drawn) [Example 1716]	> 1000 nM
CC(C)NC(=O)c1csc(-c2oc(CNCc3cccnc3)nc2-c2ccc(F)cc2)n1 [Example 1085]	> 1000 nM
CCCCN(C)C(=O)c1csc(-c2sc(C)nc2-c2ccc(F)cc2)n1 [Example 1844]	> 1000 nM
COc1ccc(CNCc2onc(-c3ccc(F)cc3)c2-c2nc(C(=O)NC(C)C)cs2)cc1 [Example 1456]	> 1000 nM
CC(C)NC(=O)c1csc(-c2c(-c3ccc(F)cc3)noc2CNc2ccc(C(F)(F)F)cc2)n1 [Example 1680]	> 1000 nM
CC(C)NC(=O)c1csc(-c2c(-c3ccc(F)cc3)n[nH]c2C2CCN(C(=O)Cc3cccc(O)c3)CC2)n1 [Example 858]	> 1000 nM
COc1ccc(NCc2nc(-c3ccc(F)cc3)c(-c3nc(C(=O)NC(C)C)cs3)o2)c(C)c1 [Example 1340]	> 1000 nM

SMILES	IC50
O=C(CNC(=O)c1csc(-c2c(-c3ccc(F)cc3)n[nH]c2C2CCNCC2)n1)c1ccccc1 [Example 2140]	> 1000 nM
CC(C)NC(=O)c1csc(-c2c(-c3ccc(F)cc3)n[nH]c2C2CCN(C(=O)CCc3ccccc3O)CC2)n1 [Example 895]	> 1000 nM
COc1ccc(OC)c(CCNCc2onc(-c3ccc(F)cc3)c2-c2nc(C(=O)NC(C)C)cs2)c1 [Example 1498]	> 1000 nM
CC(C)NC(=O)c1csc(-c2c(-c3ccc(F)cc3)noc2CNCCN(C)C)n1 [Example 1402]	> 1000 nM
Cc1nc(-c2ccc(F)cc2)c(-c2nc(C(=O)Nc3ncccc3OCc3ccccc3)cs2)s1 [Example 2021]	> 1000 nM
CCCCN(Cc1ccccc1)C(=O)c1csc(-c2sc(C)nc2-c2ccc(F)cc2)n1 [Example 1894]	> 1000 nM
Cc1cccc(C(=O)N2CCC(c3[nH]nc(-c4ccc(F)cc4)c3-c3nc(C(=O)NC(C)C)cs3)CC2)c1[N+](=O)[O-] [Example 935]	> 1000 nM
CC(C)NC(=O)c1csc(-c2oc(CNCc3cccs3)nc2-c2ccc(F)cc2)n1 [Example 1088]	> 1000 nM
COc1ccc(-c2ccccc2)cc1NCc1nc(-c2ccc(F)cc2)c(-c2nc(C(=O)NC(C)C)cs2)o1 [Example 1370]	> 1000 nM
O=C(NC1CCC1)c1csc(-c2c(-c3ccc(F)cc3)n[nH]c2C2CCNCC2)n1 [Example 2038]	≤ 1000 nM
CC(=O)c1cccc(NCc2nc(-c3ccc(F)cc3)c(-c3nc(C(=O)NC(C)C)cs3)o2)c1 [Example 1335]	> 1000 nM
CC(C)NC(=O)c1csc(-c2c(-c3ccc(F)cc3)n[nH]c2C2CCN(C(=O)c3cc(F)c(F)c(O)c3F)CC2)n1 [Example 968]	> 1000 nM
C=CCN(C(=O)c1csc(-c2sc(C)nc2-c2ccc(F)cc2)n1)C1CCCCC1 [Example 1881]	> 1000 nM
CC(C)NC(=O)c1csc(-c2oc(CNCCCN3CCCC3=O)nc2-c2ccc(F)cc2)n1 [Example 1133]	> 1000 nM
CC(C)NC(=O)c1csc(-c2c(-c3ccc(F)cc3)noc2CNC2CCCC2)n1 [Example 1397]	> 1000 nM
Cc1cccc(C(C)(C)C)c1NCc1onc(-c2ccc(F)cc2)c1-c1nc(C(=O)NC(C)C)cs1 [Example 1683]	> 1000 nM
COc1ccc(C(=O)CNCc2nc(-c3ccc(F)cc3)c(-c3nc(C(=O)NC(C)C)cs3)o2)cc1 [Example 1177]	> 1000 nM
CC(C)NC(=O)c1csc(-c2c(-c3ccc(F)cc3)n[nH]c2C2CCN(C(=O)c3ccc4ncccc4c3)CC2)n1 [Example 911]	> 1000 nM
Cc1nc(-c2ccc(F)cc2)c(-c2nc(C(=O)N3CCSCC3)cs2)s1 [Example 1854]	> 1000 nM
CC(C)NC(=O)c1csc(-c2c(-c3ccc(F)cc3)noc2CNC(=O)c2ccccc2C(=O)c2ccc(O)cc2)n1 [Example 797]	> 1000 nM
CC(C)NC(=O)c1csc(-c2c(-c3ccc(F)cc3)noc2CNc2ccccc2C(C)C)n1 [Example 1657]	> 1000 nM
CC(C)NC(=O)c1csc(-c2oc(CNCCNC(=O)OC(C)(C)C)nc2-c2ccc(F)cc2)n1 [Example 1156]	> 1000 nM
